# Source: patent publication EP4817687A2, “NUCLEOTIDE AND NUCLEOSIDE THERAPEUTIC COMPOSITIONS AND USES RELATED THERETO” (Emory University, priority 2013, dated 2015)
# Where two headings read alike, the source gives them in different places.
# How the values were obtained:
# [1] = biological target: HCV NS5B polymerase (Hepatitis C virus genotype 1b, UniProt Q9WMX2); test: HCV NS5B pol assay (NS5B RNA-dependent RNA polymerase reaction, filter binding); format: biochemical; conditions: 1 h; for IC25: read-out: HCV NS5B pol assay (^32P-GTP) IC25; for IC95: read-out: HCV NS5B pol assay (^32P-GTP) IC95
# [2] = Cytotoxicity panel (CC50), BxPC3; format: cell-based; conditions: human, bxpc3 cells
# [3] = Cytotoxicity panel (CC50), HepG2; format: cell-based; conditions: human, hepg2 cells
# [4] = Cytotoxicity panel (CC50), Huh-7; format: cell-based, human; conditions: human, huh-7 cells
# [5] = Cytotoxicity panel (CC50), A204; format: cell-based; conditions: human, a204 cells
# [6] = Cytotoxicity panel (CC50), CEM; format: cell-based; conditions: human, cem cells
# [7] = tested on: Huh-7; test: Cytotoxicity panel (CC50), Huh-7; format: cell-based, human; conditions: Huh-7
# [8] = tested on: IEC-6; test: Cytotoxicity panel (CC50), IEC-6; format: cell-based; conditions: IEC-6
# [9] = tested on: BxPC3; test: Cytotoxicity panel (CC50), BxPC3; format: cell-based; conditions: BxPC3
# [10] = tested on: H9c; test: Cytotoxicity panel (CC50), H9c; format: cell-based; conditions: H9c
# [11] = tested on: A204; test: Cytotoxicity panel (CC50), A204; format: cell-based; conditions: A204
# [12] = Cytotoxicity panel (CC50), IEC-6; format: cell-based; conditions: rat, iec-6 cells
# [13] = Cytotoxicity panel (CC50), H9c; format: cell-based; conditions: rat, h9c cells
# [14] = Anti-Dengue assay, toxicity (XTT) in Vero cells; conditions: monkey
# [15] = tested on: Dengue Type 2; test: Anti-Dengue Virus Cytoprotection Assay, Dengue Type 2
# [16] = Cytotoxicity (CC50) in the GT1b replicon test; format: cell-based; conditions: gt1b replicon cells
# [17] = tested on: 3a (GT1b/3a NS5B chimera); test: microbe, parasite or virus in culture; format: cell-based, HCV; conditions: Hepatitis C virus, read-out: EC50(µM) 3a (GT1b/3a NS5B chimera)
# [18] = tested on: GT1b-NS5B-S96T; test: microbe, parasite or virus in culture; format: cell-based, HCV; conditions: Hepatitis C virus, read-out: EC50(µM) GT1b-NS5B-S96T
# [19] = tested on: 4a (GT1b/4a NS5B chimera); test: microbe, parasite or virus in culture; format: cell-based, HCV; conditions: Hepatitis C virus, read-out: EC50(µM) 4a (GT1b/4a NS5B chimera)
# [20] = tested on: 2b (GT1b/2b NS5B chimera); test: microbe, parasite or virus in culture; format: cell-based, HCV; conditions: Hepatitis C virus, read-out: EC50(µM) 2b (GT1b/2b NS5B chimera)
# [21] = tested on: GT1b-NS5B-S282T; test: microbe, parasite or virus in culture; format: cell-based, HCV; conditions: Hepatitis C virus, read-out: EC50(µM) GT1b-NS5B-S282T
# [22] = tested on: HepG2; test: Cytotoxicity panel (CC50), HepG2; format: cell-based; conditions: HepG2
compound,measurement,setting,value
C[C@@]1(F)[C@H](O)[C@@H](COP(=O)(O)OP(=O)(O)OP(=O)(O)O)O[C@H]1n1ccc(=O)[nH]c1=O,IC25,[1],0.52 µM
same,IC95,[1],9.91 µM
CC(C)OC(=O)[C@H](C)NP(=O)(OC[C@H]1O[C@@H](n2ccc(=O)[nH]c2=[Se])[C@](C)(O)[C@@H]1O)Oc1ccccc1 (stereo partly drawn),CC50,[2],> 400 µM
same,CC50,[3],> 400 µM
same,CC50,[4],> 100 µM
same,CC50,[5],> 400 µM
CC(C)OC(=O)[C@H](C)NP(=O)(OC[C@H]1O[C@@H](n2ccc(=S)[nH]c2=O)[C@H](O)[C@@H]1O)Oc1ccccc1 (stereo partly drawn) [drawing 462],CC50,[3],> 400 µM
same,CC50,[6],> 400 µM
same,CC50,[7],369 µM
CC(C)OC(=O)[C@H](C)NP(=O)(OC[C@H]1O[C@@H](n2ccc(=S)[nH]c2=O)[C@](C)(O)[C@@H]1O)Oc1ccccc1 (stereo partly drawn) [drawing 447],CC50,[8],> 400 µM
same,CC50,[9],> 300 µM
same,CC50,[10],> 200 µM
same,CC50,[7],> 400 µM
same,CC50,[11],> 200 µM
CC(C)OC(=O)[C@H](C)NP(=O)(OC[C@H]1O[C@@H](n2ccc(=O)[nH]c2=O)[C@](C)(O)[C@@H]1O)Oc1ccccc1 (stereo partly drawn),CC50,[12],80 µM
CC(C)OC(=O)[C@H](C)NP(=O)(OC[C@H]1O[C@@H](n2ccc(=O)[nH]c2=S)[C@H](O)[C@@H]1O)Oc1ccccc1 (stereo partly drawn) [drawing 463],CC50,[3],> 400 µM
same,CC50,[6],> 400 µM
same,CC50,[4],> 400 µM
CC(C)OC(=O)[C@H](C)NP(=O)(OC[C@H]1O[C@@H](n2ccc(=S)[nH]c2=O)[C@](C)(O)[C@@H]1O)Oc1ccccc1 (stereo partly drawn) [drawing 455],CC50,[12],> 400 µM
same,CC50,[2],> 300 µM
same,CC50,[3],> 400 µM
same,CC50,[13],> 200 µM
same,CC50,[6],169 µM
same,CC50,[4],> 400 µM
same,CC50,[5],> 200 µM
C[C@@]1(O)[C@H](O)[C@@H](CO)O[C@H]1n1ccc(=S)[nH]c1=O,CC50,[2],> 100 µM
same,CC50,[3],> 400 µM
same,CC50,[6],> 400 µM
same,CC50,[4],> 100 µM
CC(C)OC(=O)[C@H](C)NP(=O)(OC[C@H]1O[C@@H](n2ccc(=O)[nH]c2=S)[C@](C)(O)[C@@H]1O)Oc1ccccc1 (stereo partly drawn) [drawing 453],CC50,[12],> 200 µM
same,CC50,[2],> 300 µM
same,CC50,[3],> 400 µM
same,CC50,[13],> 200 µM
same,CC50,[6],> 300 µM
same,CC50,[4],> 400 µM
same,CC50,[5],98 µM
C[C@@]1(O)[C@H](O)[C@@H](CO)O[C@H]1n1ccc(=O)[nH]c1=S [drawing 473],CC50,[14],> 100 µM
same,EC50,"[15]; Huh-7, read-out: Dengue Type 2 Huh-7 Cells (EC50 uM)",> 100 µM
same,EC50,"[15]; Vero, read-out: Dengue Type 2 Vero Cells (EC50 uM)",7.79 µM
CC(C)OC(=O)[C@H](C)NP(=O)(OC[C@H]1O[C@@H](n2ccc(=O)[nH]c2=S)[C@](C)(O)[C@@H]1O)Oc1ccccc1 (stereo partly drawn) [drawing 470],CC50,[16],> 10 µM
same,EC50,[17],0.0882 µM
same,EC50,[18],0.132 µM
same,EC50,[19],0.0371 µM
same,EC50,[20],0.083 µM
same,EC50,[21],> 10 µM
C[C@@]1(O)[C@H](O)[C@@H](COP(=O)(O)O)O[C@H]1n1ccc(=O)[nH]c1=S,CC50,[3],> 400 µM
same,CC50,[6],> 400 µM
same,CC50,[4],> 400 µM
C[C@@]1(O)[C@H](O)[C@@H](CO)O[C@H]1n1ccc(=O)[nH]c1=S [drawing 452],CC50,[2],> 100 µM
same,CC50,[3],> 400 µM
same,CC50,[6],> 200 µM
same,CC50,[4],> 100 µM
C[C@@]1(O)[C@H](O)[C@@H](COP(=O)(O)OP(=O)(O)OP(=O)(O)O)O[C@H]1n1ccc(=O)[nH]c1=[Se],IC25,[1],6.82 µM
same,IC95,[1],> 100 µM
C[C@H](NP(=O)(O)OC[C@H]1O[C@@H](n2ccc(=O)[nH]c2=S)[C@](C)(O)[C@@H]1O)C(=O)O,CC50,[3],> 400 µM
same,CC50,[6],> 400 µM
same,CC50,[4],> 400 µM
CC(C)OC(=O)[C@H](C)NP(=O)(OC[C@H]1O[C@@H](n2ccc(=S)[nH]c2=O)[C@H](O)[C@@H]1O)Oc1ccccc1 (stereo partly drawn) [drawing 445],CC50,[22],> 400 µM
CC(C)OC(=O)[C@H](C)N[P@@](=O)(OC[C@H]1O[C@@H](n2ccc(=O)[nH]c2=O)[C@](C)(F)[C@@H]1O)Oc1ccccc1,CC50,[3],> 400 µM
same,CC50,[6],> 400 µM
same,CC50,[4],> 400 µM
C[C@@]1(F)[C@H](O)[C@@H](CO)O[C@H]1n1ccc(=S)[nH]c1=O,CC50,[3],> 400 µM
same,CC50,[6],> 400 µM
same,CC50,[4],> 400 µM
CC(C)OC(=O)[C@H](C)N[P@](=O)(OC[C@H]1O[C@@H](n2ccc(=O)[nH]c2=O)[C@](C)(F)[C@@H]1O)Oc1ccccc1 [drawing 472],CC50,[16],> 2 µM
same,EC50,[17],0.0385 µM
same,EC50,[18],0.0702 µM
same,EC50,[19],0.0493 µM
same,EC50,[20],0.0199 µM
same,EC50,[21],0.287 µM
O=c1[nH]c(=S)ccn1[C@@H]1O[C@H](CO)[C@@H](O)[C@H]1O,CC50,[4],60 µM
CC(C)OC(=O)[C@H](C)NP(=O)(OC[C@H]1O[C@@H](n2ccc(=S)[nH]c2=O)[C@](C)(F)[C@@H]1O)Oc1ccccc1 (stereo partly drawn),CC50,[12],> 400 µM
same,CC50,[2],> 300 µM
same,CC50,[13],> 400 µM
same,CC50,[4],> 300 µM
same,CC50,[5],> 200 µM
CC(C)OC(=O)[C@H](C)N[P@](=O)(OC[C@H]1O[C@@H](n2ccc(=O)[nH]c2=O)[C@](C)(F)[C@@H]1O)Oc1ccccc1 [drawing 460],CC50,[6],> 400 µM
CC(C)OC(=O)[C@H](C)NP(=O)(OC[C@H]1O[C@@H](n2ccc(=O)[nH]c2=S)[C@H](O)[C@@H]1O)Oc1ccccc1 (stereo partly drawn) [drawing 451],CC50,[7],> 400 µM
